Data taken from patent US11707539B2, “FAP-targeted radiopharmaceuticals and imaging agents, and uses related thereto” (Trustees of Tufts College, priority 2020, dated 2023).
Where two headings read alike, the source gives them in different places. Where a SMILES comes first, the peptide text is derived from it.

Tests used:
Assay type in all cases: biochemical
[1] = molecular target: recombinant human fibroblast activation protein (FAP) (Homo sapiens (Human), UniProt Q12884); assay: In vitro IC50 assay, fibroblast activation protein (Example 15)
Method: (§1) The purpose of this assay is to determine the IC50 of various inhibitors against recombinant human dipeptidyl peptidase IV (DPPIV), fibroblast activation protein (FAP) or prolyl oligopeptidase (PREP).
(§2) The assays are conducted in the following steps: • 1 Dissolve the compound in DMSO to a final concentration of 100 mM. From this, prepare a 1 mM stock at pH 7.5 in 50 mM Tris, 140 mM NaCl Buffer (FAP)/pH 7.5 in 25 mM Tris, 250 mM NaCl Buffer/pH 8.0 140 mM NaCl Buffer (PREP). • 2. Serial dilute (1:10) the 1 mM compound stocks prepared previously into the appropriate assay buffer (FAP: 50 mM Tris, 140 mM NaCl, pH 7.5/PREP: 25 mM Tris, 0.25 M NaCl, pH 7.5/DPPIV: 25 mM Tris, pH 8.0) to one row of a 96-well plate. • 3. […] Dilute the enzymes into their appropriate assay buffers. The final enzyme concentrations should be 0.1, 1.2, and 0.6 nM for DPPIV, FAP and PREP respectively. Add 180 μL to each well needed in columns 2-10. Column 1 (A,B,C) should be prepared with 200 ul of appropriate assay buffer as control. Column 1 (D,E,F,G,H) should be prepared with 20 ul of appropriate assay buffer and 180 ul enzyme as no inhibitor control. • 5. Add 20 μL of the compound of interest from the dilution plate prepared in step 2 to columns 2-10 of the assay plate where appropriate. Each sample should be tested in triplicate. Allow this to incubate for 10 minutes at room temperature, shaking the plate for the first two minutes. • 6. Add 10 μL of 20× substrate prepared in step 3 to each well and allow this to incubate for 15 minutes at room temperature, shaking the plate for the first two minutes. • 7. Read the fluorescence at λex: 380, λem: 460. (DPcore=[dAla|dSerGly]-[boroPro|Pro-nitrile], XXaa=alpha-amino acid)

[2] = molecular target: recombinant human dipeptidyl peptidase IV (DPPIV) (Homo sapiens (Human), UniProt P27487); assay: In vitro IC50 assay, dipeptidyl peptidase IV (Example 15); conditions: Gly-Pro-AMC, room temperature
Method: as §1, §2

[3] = molecular target: recombinant human prolyl oligopeptidase (PREP) (Homo sapiens (Human), UniProt P48147); assay: In vitro IC50 assay, prolyl oligopeptidase (Example 15)
Method: as §1, §2

[4] = Z-Gly-Pro-AMC, room temperature, read-out: FAP IC50
[5] = Z-Gly-Pro-AMC, room temperature, read-out: PREP IC50

recombinant human dipeptidyl peptidase IV (DPPIV), sequence (P27487 whole entry): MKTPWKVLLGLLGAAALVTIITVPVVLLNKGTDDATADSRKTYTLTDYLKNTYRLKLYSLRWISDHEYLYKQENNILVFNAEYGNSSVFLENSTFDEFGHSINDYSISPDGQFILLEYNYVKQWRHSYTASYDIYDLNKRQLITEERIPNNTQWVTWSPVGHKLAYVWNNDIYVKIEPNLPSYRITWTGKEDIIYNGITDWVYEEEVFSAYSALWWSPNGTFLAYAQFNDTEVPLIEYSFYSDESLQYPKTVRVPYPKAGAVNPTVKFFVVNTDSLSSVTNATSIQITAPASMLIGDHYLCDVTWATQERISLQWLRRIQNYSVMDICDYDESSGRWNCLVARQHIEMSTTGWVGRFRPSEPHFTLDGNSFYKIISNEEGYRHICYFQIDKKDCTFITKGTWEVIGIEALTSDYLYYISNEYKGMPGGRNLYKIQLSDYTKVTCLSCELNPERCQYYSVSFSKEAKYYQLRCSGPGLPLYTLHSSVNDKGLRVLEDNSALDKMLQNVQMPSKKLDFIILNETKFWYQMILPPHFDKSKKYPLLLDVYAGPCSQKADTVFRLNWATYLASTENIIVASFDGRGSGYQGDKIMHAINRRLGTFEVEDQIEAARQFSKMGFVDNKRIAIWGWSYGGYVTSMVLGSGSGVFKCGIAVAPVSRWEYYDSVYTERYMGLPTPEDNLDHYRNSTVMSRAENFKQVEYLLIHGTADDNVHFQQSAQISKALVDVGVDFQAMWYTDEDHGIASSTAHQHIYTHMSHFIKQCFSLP
recombinant human prolyl oligopeptidase (PREP), sequence (P48147 whole entry): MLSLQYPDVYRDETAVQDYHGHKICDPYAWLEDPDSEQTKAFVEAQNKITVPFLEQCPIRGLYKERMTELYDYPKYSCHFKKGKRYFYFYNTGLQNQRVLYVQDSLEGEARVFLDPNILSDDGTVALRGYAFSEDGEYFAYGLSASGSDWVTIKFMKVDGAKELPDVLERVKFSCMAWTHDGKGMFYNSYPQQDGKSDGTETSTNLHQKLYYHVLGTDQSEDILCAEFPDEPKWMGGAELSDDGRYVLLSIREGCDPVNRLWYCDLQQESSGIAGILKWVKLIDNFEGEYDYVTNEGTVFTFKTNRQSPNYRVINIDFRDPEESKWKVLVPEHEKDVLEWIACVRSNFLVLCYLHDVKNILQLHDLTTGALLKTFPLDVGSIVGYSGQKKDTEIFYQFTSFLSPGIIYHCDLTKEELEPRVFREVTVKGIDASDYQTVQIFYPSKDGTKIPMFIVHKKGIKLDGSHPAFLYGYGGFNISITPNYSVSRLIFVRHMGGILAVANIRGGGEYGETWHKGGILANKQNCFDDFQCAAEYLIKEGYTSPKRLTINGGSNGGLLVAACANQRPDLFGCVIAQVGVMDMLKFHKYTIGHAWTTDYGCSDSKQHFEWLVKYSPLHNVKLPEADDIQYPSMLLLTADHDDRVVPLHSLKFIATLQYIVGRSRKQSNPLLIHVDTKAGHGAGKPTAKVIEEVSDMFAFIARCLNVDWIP
recombinant human fibroblast activation protein (FAP), sequence (Q12884 whole entry): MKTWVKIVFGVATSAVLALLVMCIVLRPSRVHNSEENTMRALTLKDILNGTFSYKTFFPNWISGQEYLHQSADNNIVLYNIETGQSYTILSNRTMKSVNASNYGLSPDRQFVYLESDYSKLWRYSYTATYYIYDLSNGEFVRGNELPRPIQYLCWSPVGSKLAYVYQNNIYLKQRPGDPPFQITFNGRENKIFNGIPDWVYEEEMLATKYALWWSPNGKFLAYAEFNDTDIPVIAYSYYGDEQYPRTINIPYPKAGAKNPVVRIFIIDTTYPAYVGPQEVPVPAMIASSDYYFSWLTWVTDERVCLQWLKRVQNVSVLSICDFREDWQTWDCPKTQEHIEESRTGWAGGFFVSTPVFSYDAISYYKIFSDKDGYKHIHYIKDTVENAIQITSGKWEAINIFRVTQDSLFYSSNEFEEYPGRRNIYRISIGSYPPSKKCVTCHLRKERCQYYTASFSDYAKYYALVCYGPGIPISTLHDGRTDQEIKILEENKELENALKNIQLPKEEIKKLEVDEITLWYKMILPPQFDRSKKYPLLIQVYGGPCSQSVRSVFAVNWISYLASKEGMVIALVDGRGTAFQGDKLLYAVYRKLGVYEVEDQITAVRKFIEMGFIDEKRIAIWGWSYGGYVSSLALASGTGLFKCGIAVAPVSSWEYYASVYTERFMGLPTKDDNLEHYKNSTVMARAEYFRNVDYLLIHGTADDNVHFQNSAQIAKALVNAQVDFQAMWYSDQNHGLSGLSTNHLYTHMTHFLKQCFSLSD

Compound	IC50 [1, 4]	IC50 [2]	IC50 [3, 5]	other results
C[C@@H](NC(=O)c1ccc(NNC(=O)CN2CCN3CCN4CCN(CC2)CC(=O)[O][Ga]([O]C(=O)C3)[O]C(=O)C4)cc1)C(=O)N1CCC[C@H]1B(O)O [Compound 5183GA]	46.1 nM			
CC(C)[C@H](NC(=O)CNC(=O)CNC(=O)CNC(=O)CCC(C(=O)O)N1CCN(CC(=O)O)CCN(CC(=O)O)CCN(CC(=O)O)CC1)C(=O)N[C@H](C)C(=O)N1CCC[C@H]1B(O)O (mixture of isomers) [Compound 6808, (R/S)-DOTAGA-(Gly)3-Val-Dala-boroPro]				IC50 [1]: 11.5 nM
C[C@@H](NC(=O)c1ccc(NNC(=O)CN2CCN3CCN4CCN(CC2)CC(=O)[O][Gd]([O]C(=O)C3)[O]C(=O)C4)nc1)C(=O)N1CCC[C@H]1B(O)O [Compound 4536GD]		> 100000 nM	> 100000 nM	
C[C@H](NC(=O)CN1CCN2CCN3CCN(CC1)CC(=O)[O][Gd]([O]C(=O)C2)[O]C(=O)C3)C(=O)N[C@H](C)C(=O)N1CCC[C@H]1B(O)O [Compound 6511Gd, DOTA[(Gd(III)]-Ala-D-Ala-boroPro]	428 nM			
C[C@@H](NC(=O)c1ccc(NNC(=O)CCCCCNC(=O)CN2CCN3CCN4CCN(CC2)CC(=O)[O][Ga]([O]C(=O)C3)[O]C(=O)C4)cc1)C(=O)N1CCC[C@H]1B(O)O [Compound 6486GA]	81 nM	> 100000 nM	4700 nM	
CC(C)[C@H](NC(=O)CNC(=O)CC[C@H](C(=O)O)N1CCN(CC(=O)O)CCN(CC(=O)O)CCN(CC(=O)O)CC1)C(=O)N[C@H](C)C(=O)N1CCC[C@H]1B(O)O [Compound 6795D, (R)-DOTAGA-Gly-Val-D-ala-boroPro]		> 100000 nM		
C[C@@H](NC(=O)c1ccc(NN)nc1)C(=O)N1CCC[C@H]1B(O)O [Compound 3860, N-(6-hydrazinylnicotincarbonyl)-D-AlaboroPro]		> 100000 nM		
C[C@@H](NC(=O)c1ccc(NNC(=O)CCCCCNC(=O)CN2CCN3CCN4CCN(CC2)CC(=O)[O][Lu]([O]C(=O)C3)[O]C(=O)C4)nc1)C(=O)N1CCC[C@H]1B(O)O [Compound 6958LU]	1.1 nM		155 nM	
CC(C)[C@H](NC(=O)CNC(=O)CNC(=O)CN1CCN2CCN3CCN(CC1)CC(=O)[O][Ga]([O]C(=O)C2)[O]C(=O)C3)C(=O)N[C@H](C)C(=O)N1CCC[C@H]1B(O)O [Compound 6522GA-02, DOTA(Ga)-Gly-Gly-Val-D-alaboroPro] (HELM PEPTIDE1{[O=C1CN2CCN3CCN(CC(=O)[*:2])CCN(CC2)CC(=O)[O][Ga]([O]1)[O]C(=O)C3].G.G.V.[dA].[OB(O)[C@@H]1CCCN1[*:1]]}$$$$V2.0)	575 nM	> 100000 nM	19000 nM	
CC(C)[C@H](NC(=O)CNC(=O)CNC(=O)CN1CCN2CCN3CCN(CC1)CC(=O)[O][Lu]([O]C(=O)C2)[O]C(=O)C3)C(=O)N[C@H](C)C(=O)N1CCC[C@H]1B(O)O [Compound 6522LU, DOTA(Lu)-Gly-Gly-Val-D-ala-boroPro] (HELM PEPTIDE1{[O=C1CN2CCN3CCN(CC(=O)[*:2])CCN(CC2)CC(=O)[O][Lu]([O]1)[O]C(=O)C3].G.G.V.[dA].[OB(O)[C@@H]1CCCN1[*:1]]}$$$$V2.0)	26 nM	> 100000 nM	19000 nM	
CC(C)[C@H](NC(=O)CN1CCN2CCN(CC(=O)O)CCN(CC1)CC(=O)[O][Cu][O]C(=O)C2)C(=O)N[C@H](C)C(=O)N1CCC[C@H]1B(O)O (stereo in doubt) [Compound 6508CU, DOTA[(Cu(II)]-Val-D-Ala-boroPro]	26.2 nM			
C[C@@H](NC(=O)[C@H](CO)NC(=O)CN1CCN(CC(=O)O)CCN(CC(=O)O)CCN(CC(=O)O)CC1)C(=O)N1CCC[C@H]1B(O)O [Compound 6509, DOTA-Ser-D-Ala-boroPro]	186 nM			
C[C@@H](NC(=O)c1ccc(NNC(=O)CN2CCN(CC(=O)O)CCN(CC(=O)O)CCN(CC(=O)O)CC2)nc1)C(=O)N1CCC[C@H]1B(O)O [Compound 4536]			750 nM	
C[C@@H](NC(=O)CN1CCN(CC(=O)O)CCN(CC(=O)O)CCN(CC(=O)O)CC1)C(=O)N1CCC[C@H]1B(O)O [Compound 4535, DOTA-D-ala-boroPro]			> 10000 nM	IC50 [1]: 33 nM; IC50 [3]: 10000 nM
C[C@@H](NC(=O)CN1CCN2CCN3CCN(CC1)CC(=O)[O][Gd]([O]C(=O)C2)[O]C(=O)C3)C(=O)N1CCC[C@H]1B(O)O [Compound 4535GD, DOTA[(Gd(III)]-D-alaboroPro]	760 nM		> 10000 nM	
(R)-DOTAGA(Ga)-Gly-Val-Dala-boroPro [Compound 6795DGA]	310 nM	> 100000 nM	9400 nM	
C[C@@H](NC(=O)c1ccc(NNC(=O)CCCCCC2=C(/C=C/C3=C(Oc4ccc(S(=O)(=O)O)cc4)C(=C/C=C4/N(CCCCS(=O)(=O)O)c5ccc(S(=O)(=O)O)cc5C4(C)C)/CCC3)C(C)(C)c3cc(S(=O)(=O)O)ccc32)cc1)C(=O)N1CCC[C@H]1B(O)O [Compound 4613C, IRDye 800CW-3860B]	1.7 nM		610 nM	
CC(C)[C@H](NC(=O)CNC(=O)CC[C@@H]1C(=O)[O][Lu]23[O]C(=O)CN4CCN(CCN1CCN(CC4)CC(=O)[O]2)CC(=O)[O]3)C(=O)N[C@H](C)C(=O)N1CCC[C@H]1B(O)O [Compound 6795DLU, (R)-DOTAGA(Lu)-Gly-Val-Dala-boroPro]		> 100000 nM		
CC(C)[C@H](NC(=O)CNC(=O)CNC(=O)CN1CCN(CC(=O)O)CCN(CC(=O)O)CCN(CC(=O)O)CC1)C(=O)N[C@H](C)C(=O)N1CCCC1B1OC(=O)CN(C)CC(=O)O1 (stereo partly drawn) [Compound 6522M, DOTA-Gly-Gly-Val-D-alaboroPro-MIDA] (HELM PEPTIDE1{[O=C(O)CN1CCN(CC(=O)O)CCN(CC(=O)[*:2])CCN(CC(=O)O)CC1].G.G.V.[dA].[CN1CC(=O)OB(C2CCCN2[*:1])OC(=O)C1]}$$$$V2.0)	280 nM			
C[C@@H](NC(=O)c1ccc(NC(=O)CCCCNC(=O)CN2CCN3CCN4CCN(CC2)CC(=O)[O][Lu]([O]C(=O)C3)[O]C(=O)C4)cc1)C(=O)N1CCC[C@H]1B(O)O [Compound 6590LU]	0.4 nM			
CC(C)[C@H](NC(=O)CNC(=O)CNC(=O)CNC(=O)CNC(=O)CN1CCN(CC(=O)O)CCN(CC(=O)O)CCN(CC(=O)O)CC1)C(=O)N[C@H](C)C(=O)N1CCC[C@H]1B(O)O [Compound 6839, DOTA-(Gly)4-Val-D-ala-boroPro] (HELM PEPTIDE1{[O=C(O)CN1CCN(CC(=O)O)CCN(CC(=O)[*:2])CCN(CC(=O)O)CC1].G.G.G.G.V.[dA].[OB(O)[C@@H]1CCCN1[*:1]]}$$$$V2.0)	21 nM			
(R)-DOTAGA(Ga)-(Gly)3-Val-Dala-boroPro [Compound 6808DGA]	89 nM			
CC(C)[C@H](NC(=O)CNC(=O)CC[C@H]1C(=O)[O][Lu]23[O]C(=O)CN4CCN(CCN1CCN(CC4)CC(=O)[O]2)CC(=O)[O]3)C(=O)N[C@H](C)C(=O)N1CCC[C@H]1B(O)O [Compound 6795LLU, (S)-DOTAGA-Gly-Val-Dala-boroPro (6795L-Lu Complex)]				IC50 [1]: 20.1 nM; IC50 [3]: 6390 nM
C[C@@H](NC(=O)c1ccc(NNC(=O)CCCNC(=O)CN2CCN3CCN4CCN(CC2)CC(=O)[O][Lu]([O]C(=O)C3)[O]C(=O)C4)nc1)C(=O)N1CCC[C@H]1B(O)O [Compound 6609LU]	1 nM		60 nM	
